Data published in patent publication US20240197694A1, “MODIFIED PROTEINS AND PROTEIN BINDERS” (Cullgen (Shanghai), Inc., priority 2021, published 2024).

Molecular target: T1, DCAF1 (1058-1396) (Homo sapiens, UniProt Q9Y4B6)
T1 construct: a fragment of a DCAF1 protein that includes amino acid residues A1058 to E1396; His6 (N, cleaved yes); made in house; host or cells: Sf9 insect cells (Bac-to-Bac baculovirus, pFastBacHT vector)
Assay: Surface plasmon resonance (SPR) binding assay, compound binding to DCAF1
Details: immobilized DCAF1 (1058-1396), steady state affinity model, 25° C.
How it was run: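 Amine-coupled DCAF1 (1058-1396), Sf9-expressed, tag removed, at 9,000-12,000 RU; HBS-EP pH 7.4 with 2% DMSO, 25° C. Compounds at 100-3.125 μM (6-point, two-fold) injected multi-cycle, 60 s association/dissociation, 30 μL/min; double-referenced, solvent-corrected, Kd from steady-state affinity fit.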

T1 sequence (Q9Y4B6 1058-1396): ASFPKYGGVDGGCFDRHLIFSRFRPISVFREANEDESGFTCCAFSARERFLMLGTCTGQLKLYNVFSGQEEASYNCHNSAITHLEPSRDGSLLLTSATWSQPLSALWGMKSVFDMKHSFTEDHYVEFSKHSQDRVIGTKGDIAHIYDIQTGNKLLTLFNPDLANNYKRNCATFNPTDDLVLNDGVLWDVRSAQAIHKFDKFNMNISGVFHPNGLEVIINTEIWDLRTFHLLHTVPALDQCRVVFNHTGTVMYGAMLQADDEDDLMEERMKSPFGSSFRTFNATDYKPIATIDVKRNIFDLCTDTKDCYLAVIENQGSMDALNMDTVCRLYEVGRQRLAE

Structure (SMILES)	Kd [µM]
O=C(CN1CCc2[nH]c3ccc(Cl)cc3c2C1)N1CCOCC1 [CPD-044, 2-(8-chloro-1,3,4,5-tetrahydro-2H-pyrido[4,3-b]indol-2-yl)-1-morpholinoethan-1-one]	40 to 70
Cc1ccc2c(c1)[C@H]1CN(C)CC[C@H]1N2C (racemic) [CPD-036, cis-2,5,8-trimethyl-2,3,4,4a,5,9b-hexahydro-1H-pyrido [4,3-b]indole]	> 100
Cc1ccc2c(c1)c1c(n2C)CC[N+](C)(C)C1 [CPD-020, 2,2,5,8-tetramethyl-2,3,4,5-tetrahydro-1H-2λ^4-pyrido[4,3-b]indol-3-ylium]	> 100
Cc1ccc2c(c1)C1CN(C)CCC1N2C(=O)/C=C/c1ccc(F)cc1 (stereo not shown) [CPD-084, (E)-1-(2,8-dimethyl-1,2,3,4,4a,9b-hexahydro-5H-pyrido [4,3-b]indol-5-yl)-3-(4-fluorophenyl)prop-2-en-1-one]	40 to 70
Cc1ccc2c(c1)C1CN(C)CCC1N2C(=O)c1nc(Cl)ccc1Cl (stereo not shown) [CPD-066, (3,6-dichloropyridin-2-yl) (2,8-dimethyl-1,2,3,4,4a,9b-hexahydro-5H-pyrido[4,3-b]indol-5-yl)methanone]	> 100
CN1Cc2cc(NCCCCCCN)ccc2CC1CNc1ncccc1F (stereo not shown) [CPD-018, N1-(3-(((3-fluoropyridin-2-yl)amino)methyl)-2-methyl-1,2,3,4-tetrahydroisoquinolin-7-yl)hexane-1,6-diamine]	40 to 70
Cn1cccc1CNCc1cccnc1 [CPD-002, 1-(1-methyl-1H-pyrrol-2-yl)-N-(pyridin-3-ylmethyl)methanamine]	> 100
Cc1ccc2c(c1)C1CN(C)CCC1N2C(=O)/C(=C/c1ccc(Cl)cc1)c1ccc(F)cc1 (stereo not shown) [CPD-088, (E)-3-(4-chlorophenyl)-1-(2,8-dimethyl-1,2,3,4,4a,9b-hexahydro-5H-pyrido[4,3-b]indol-5-yl)-2-(4-fluorophenyl)prop-2-en-1-one]	40 to 70
Cc1ccc2[nH]c3c(c2c1)CN(CC(O)COc1ccc(C(=O)O)cc1)CC3 (stereo not shown) [CPD-056, 4-(2-hydroxy-3-(8-methyl-1,3,4,5-tetrahydro-2H-pyrido[4,3-b]indol-2-yl)propoxy)benzoic acid]	≤ 40
Cc1ccc(Br)c2[nH]c3c(c12)CN(C)CC3 [CPD-038, 6-bromo-2,9-dimethyl-2,3,4,5-tetrahydro-1H-pyrido[4,3-b]indole]	> 100
OCCOc1cccc(CNCc2cnc[nH]2)c1 [CPD-103, 2-(3-((((1H-imidazol-5-yl)methyl)amino)methyl)phenoxy)ethan-1-ol]	> 100
C#CCNC(=O)CCN1CCc2[nH]c3ccc(F)cc3c2C1 [CPD-052, 3-(8-fluoro-1,3,4,5-tetrahydro-2H-pyrido[4,3-b]indol-2-yl)-N-(prop-2-yn-1-yl)propanamide]	40 to 70
COC(CN1CCc2[nH]c3ccc(F)cc3c2C1)OC [CPD-051, 2-(2,2-dimethoxyethyl)-8-fluoro-2,3,4,5-tetrahydro-1H-pyrido[4,3-b]indole]	≤ 40
Cc1ccc2[nH]c3c(c2c1)CN(C)CC3 [CPD-019, 2,8-dimethyl-2,3,4,5-tetrahydro-1H-pyrido[4,3-b]indole]	40 to 70
CCn1nc(C2CC2)cc1C(=O)N1c2ccc(C)cc2C2CN(C)CCC21 (stereo not shown) [CPD-071, (3-cyclopropyl-1-ethyl-1H-pyrazol-5-yl)(2,8-dimethyl-1,2,3,4,4a,9b-hexahydro-5H-pyrido[4,3-b]indol-5-yl)methanone]	> 100
Cc1ccc2c(c1)C1CN(C)CCC1N2S(=O)(=O)c1ccc(C(=O)C(C)C)cc1 (stereo not shown) [CPD-077, 1-(4-((2,8-dimethyl-1,2,3,4,4a,9b-hexahydro-5H-pyrido[4,3-b]indol-5-yl)sulfonyl)phenyl)-2-methylpropan-1-one]	> 100
Cc1ccc2[nH]c3c(c2c1)CN(CCc1cnn[nH]1)CC3 [CPD-013, 2-(2-(1H-1,2,3-triazol-5-yl)ethyl)-8-methyl-2,3,4,5-tetrahydro-1H-pyrido[4,3-b]indole]	40 to 70
Cc1nc(N)nc(C)c1CC(=O)NCC1Cc2ccccc2CN1C (stereo not shown) [CPD-094, 2-(2-amino-4,6-dimethylpyrimidin-5-yl)-N-((2-methyl-1,2,3,4-tetrahydroisoquinolin-3-yl)methyl)acetamide]	40 to 70
CCN1CCc2[nH]c3ccccc3c2C1 [CPD-043, 2-ethyl-2,3,4,5-tetrahydro-1H-pyrido[4,3-b]indole]	40 to 70
OCCCNCc1cccn1-c1ccccc1 [CPD-101, 3-(((1-phenyl-1H-pyrrol-2-yl)methyl)amino)propan-1-ol]	> 100
CN(CC1Cc2ccccc2CN1C)C(=O)/C=C/c1cc(CO)cs1 (stereo not shown) [CPD-097, (E)-3-(4-(hydroxymethyl)thiophen-2-yl)-N-methyl-N-((2-methyl-1,2,3,4-tetrahydroisoquinolin-3-yl)methyl)acrylamide]	> 100
Cn1cccc1CNCC1CC(c2nncn2C)CC1O (stereo not shown) [CPD-099, 2-((((1-methyl-1H-pyrrol-2-yl)methyl)amino)methyl)-4-(4-methyl-4H-1,2,4-triazol-3-yl)cyclopentan-1-ol]	40 to 70
